Data published in article PMC5198511 (Molecular Pharmacology, 2017).

Tests used:
LogD7.4 measurement = format: physicochemical; conditions: 1-octanol/phosphate buffer, pH 7.4
[1] = Immobilized artificial membrane chromatography; format: physicochemical; conditions: IAM chromatography, pH 7.4

- logD (LogD7.4 measurement): < -0.8
- log KIAM [1]: −0.09
SMILES: CCNC(=O)[C@H]1O[C@@H](n2cnc3c(N)nc(NCCc4ccc(CCC(=O)O)cc4)nc32)[C@H](O)[C@@H]1O [Compound 3ac]
